# Measured values as given in US11857560B2, “Pharmaceutical compositions comprising substituted nucleotides and nucleosides for treating viral infections” (priority 2013, dated 2024).
# Columns and labels:
# [1] = Cytotoxicity in GT1b replicon cells; type: cell-based
# [2] = Cytotoxicity panel, CEM; conditions: human, CEM cells, Cytotoxicity (CC50 uM) CEM
# [3] = Cytotoxicity panel, Huh-7; conditions: human, Huh-7 cells, Cytotoxicity (CC50 uM) Huh-7, Huh-7
# [4] = Cytotoxicity panel, HepG2; conditions: human, HepG2 cells
# [5] = Toxicity in Huh-7 cells (Dengue assay); conditions: human, Huh-7 cells
# [6] = Toxicity in Vero cells (Dengue assay); conditions: African green monkey
# [7] = Cellular toxicity in parallel with HCV replicon assay (XTT); conditions: human
# [8] = Cytotoxicity panel, BxPC3; conditions: human, BxPC3 cells
# [9] = Cytotoxicity panel, H9c; type: cell-based; conditions: rat, H9c cells
# [10] = tested on: Dengue Type 2; experiment: Anti-Dengue virus cytoprotection assay, Vero cells; conditions: read-out: Dengue Type 2 Vero Cells (EC50 uM)
# [11] = tested on: Dengue Type 2; experiment: Anti-Dengue virus cytoprotection assay, Huh-7 cells; conditions: Huh-7, read-out: Dengue Type 2 Huh-7 Cells (EC50 uM)
# [12] = Cytotoxicity panel, A204; type: cell-based; conditions: human, A204 cells
# [13] = Cytotoxicity panel, IEC-6; type: cell-based; conditions: rat, IEC-6 cells
# [14] = tested on: VEEV; experiment: microbe, parasite or virus in culture; type: cell-based; conditions: Venezuelan equine encephalitis virus, read-out: VEEV EC50
# [15] = tested on: Influenza B; experiment: Antiviral activity, Influenza B; type: cell-based; conditions: Influenza B virus; read-out: Influenza B EC50
# [16] = tested on: Influenza A H5N1 (low path); experiment: microbe, parasite or virus in culture; type: cell-based; conditions: H5N1, read-out: Influenza A H5N1 (low path) EC50
# [17] = tested on: Measles; experiment: Antiviral activity, Measles; type: cell-based, measles virus; conditions: Measles morbillivirus
# [18] = tested on: Influenza A H1N1; experiment: Antiviral activity, Influenza A H1N1; type: cell-based; conditions: Influenza A virus, H1N1; read-out: Influenza A H1N1 EC50
# [19] = tested on: Dengue Virus; experiment: Antiviral activity, Dengue Virus; type: cell-based
# [20] = tested on: RVFV; experiment: microbe, parasite or virus in culture; type: cell-based; conditions: Rift Valley fever virus, read-out: RVFV EC50
# [21] = tested on: CHIK Virus; experiment: Antiviral activity, CHIK Virus; type: cell-based; conditions: Chikungunya virus, read-out: CHIK Virus EC50
# [22] = tested on: West Nile Virus; experiment: Antiviral activity, West Nile Virus; type: cell-based; conditions: read-out: West Nile Virus EC50
# [23] = tested on: Tacaribe Virus; experiment: microbe, parasite or virus in culture; type: cell-based; conditions: Mammarenavirus tacaribeense, read-out: Tacaribe Virus EC50
# [24] = tested on: RSV; experiment: Antiviral activity, RSV; type: cell-based; conditions: human respiratory syncytial virus
# [25] = tested on: Influenza A H3N2; experiment: Antiviral activity, Influenza A H3N2; type: cell-based; conditions: Influenza A virus, H3N2; read-out: Influenza A H3N2 EC50
# [26] = tested on: SARS; experiment: microbe, parasite or virus in culture; conditions: Severe acute respiratory syndrome coronavirus, read-out: SARS EC50
compound,measurement,setting,value
"CC(C)OC(=O)[C@H](C)N[P@](=O)(OC[C@H]1O[C@@H](n2ccc(=O)[nH]c2=O)[C@](C)(F)C1O)Oc1ccccc1 (some centres unmarked) [GS-7977, reference compound]",CC50,[1],> 2 µM
CC(C)OC(=O)[C@H](C)N[P@](=O)(OC[C@H]1O[C@@H](n2ccc(=O)[nH]c2=O)[C@](C)(F)C1O)Oc1ccccc1 (some centres unmarked) [ENUC-02025-1],CC50,[2],> 400 µM
same,CC50,[3],279 µM
same,CC50,[4],365 µM
C[C@@]1(O)C(O)[C@@H](CO)O[C@H]1n1ccc(=O)[nH]c1=S (some centres unmarked) [ENUC-01850],CC50,[5],> 100 µM
same,CC50,[6],> 100 µM
O=c1[nH]c(=S)ccn1[C@@H]1O[C@H](CO)C(O)[C@@H]1O (some centres unmarked) [ENUC-01893-1],CC50 at 72 h,[7],45.7 µM
C[C@@]1(O)C(O)[C@@H](CO)O[C@H]1n1ccc(=O)[nH]c1=S (some centres unmarked) [ENUC-01850-1],CC50,[3],> 100 µM
same,CC50,[4],> 400 µM
same,CC50,[8],> 100 µM
CC(C)OC(=O)[C@H](C)NP(=O)(OC[C@H]1O[C@@H](n2ccc(=O)[nH]c2=S)[C@](C)(O)C1O)Oc1ccccc1 (some centres unmarked) [ENUC-01911-1],CC50,[3],> 400 µM
same,CC50,[9],> 200 µM
same,CC50,[4],> 400 µM
same,CC50,[8],> 300 µM
CC(C)OC(=O)[C@H](C)N[P@@](=O)(OC[C@H]1O[C@@H](n2ccc(=O)[nH]c2=S)[C@](C)(O)C1O)Oc1ccccc1 (some centres unmarked) [ENUC-02024],EC50,[10],56.2 µM
same,EC50,[11],24.9 µM
same,CC50,[5],> 100 µM
same,CC50,[6],> 100 µM
CC(C)OC(=O)[C@H](C)NP(=O)(OC[C@H]1O[C@@H](n2ccc(=S)[nH]c2=O)[C@](C)(F)C1O)Oc1ccccc1 (some centres unmarked) [ENUC-01943-1],CC50,[2],136 µM
same,CC50,[4],199 µM
same,CC50,[8],> 300 µM
same,CC50,[12],> 200 µM
same,CC50,[13],> 400 µM
CC(C)OC(=O)[C@H](C)NP(=O)(OC[C@H]1O[C@@H](n2ccc(=O)[nH]c2=S)[C@@H](C)C1O)Oc1ccccc1 (some centres unmarked) [ENUC-02078-1],CC50,[2],259 µM
same,CC50,[3],> 400 µM
same,CC50,[4],> 400 µM
same,EC50,[11],6.07 µM
same,CC50,[5],> 100 µM
CC(C)OC(=O)[C@H](C)N[P@@](=O)(OC[C@H]1O[C@@H](n2ccc(=O)[nH]c2=S)[C@](C)(O)C1O)Oc1ccccc1 (some centres unmarked) [ENUC-02024-1],CC50,[2],> 400 µM
same,CC50,[3],> 400 µM
same,CC50,[4],> 400 µM
CN(C)c1ccn([C@@H]2O[C@H](CO)C(O)[C@@H]2F)c(=O)n1 (some centres unmarked) [EFVX-01854],EC50,[14],> 100 µg/mL
same,EC50,[15],> 100 µM
same,EC50,[16],> 100 µM
same,EC50,[17],> 100 µM
same,EC50,[18],> 100 µM
same,EC50,[19],> 100 µg/mL
same,EC50,[20],> 100 µg/mL
same,EC50,[21],> 100 µg/mL
same,EC50,[22],> 100 µg/mL
same,EC50,[23],> 100 µg/mL
same,EC50,[24],> 100 µM
same,EC50,[25],> 100 µM
same,EC50,[26],> 100 µM
CC(C)OC(=O)[C@H](C)NP(=O)(OC[C@H]1O[C@@H](n2ccc(=O)[nH]c2=O)[C@](C)(O)C1O)Oc1ccccc1 (some centres unmarked) [ENUC-01982-1],CC50,[2],150 µM
same,CC50,[3],65 µM
same,CC50,[9],31 µM
same,CC50,[4],159 µM
same,CC50,[8],157 µM
same,CC50,[12],124 µM
C#C[C@]1(COP(=O)(N[C@@H](C)C(=O)OC(C)C)Oc2ccccc2)O[C@@H](n2ccc(=O)[nH]c2=S)[C@@H](O)C1O (some centres unmarked) [ENUC-02069-1],CC50,[2],> 400 µM
same,CC50,[3],> 400 µM
same,CC50,[4],> 400 µM
same,EC50,[11],> 100 µM
same,CC50,[5],> 100 µM
Cc1cn([C@@H]2O[C@H](CO)C(O)[C@@H]2F)c(=O)nc1N (some centres unmarked) [EFVX-01855],EC50,[14],> 100 µg/mL
same,EC50,[15],> 100 µM
same,EC50,[16],> 100 µM
same,EC50,[17],> 100 µM
same,EC50,[18],> 100 µM
same,EC50,[19],> 100 µg/mL
same,EC50,[20],> 100 µg/mL
same,EC50,[21],> 100 µg/mL
same,EC50,[22],> 100 µg/mL
same,EC50,[23],> 100 µg/mL
same,EC50,[24],> 100 µM
same,EC50,[25],> 100 µM
same,EC50,[26],> 100 µM
C[C@@]1(F)C(O)[C@@H](CO)O[C@H]1n1ccc(=S)[nH]c1=O (some centres unmarked) [ENUC-01946-1],CC50,[2],> 400 µM
same,CC50,[3],> 400 µM
same,CC50,[4],> 400 µM
